Data: patent publication US20170119742A1, “MEDICAMENT FOR PREVENTING AND/OR TREATING STRESS DISEASES” (ONO PHARMACEUTICAL CO., LTD., priority 2014, published 2017)

Columns and labels:
brain TSPO [1] = molecular target: T1, brain TSPO (Homo sapiens, UniProt P30536); experiment: Prediction of brain TSPO occupancy in steady state, once daily in humans (Biological example 8); details: for ROmax (%) Predicted 5 percentile / ROmax (%) Predicted 95 percentile / ROmax (%) Predicted median: maximum brain TSPO occupancy; for ROmin (%) Predicted 5 percentile / ROmin (%) Predicted 95 percentile / ROmin (%) Predicted median: minimum brain TSPO occupancy
T1 construct: from tissue; host or cells: living human brain (PET, healthy adults)
T1 sequence (P30536 whole entry): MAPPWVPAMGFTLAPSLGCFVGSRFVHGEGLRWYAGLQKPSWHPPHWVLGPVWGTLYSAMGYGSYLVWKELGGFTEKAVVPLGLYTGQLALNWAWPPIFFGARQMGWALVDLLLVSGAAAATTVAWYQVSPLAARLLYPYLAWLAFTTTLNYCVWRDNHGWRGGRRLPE
Text: Further, a transition in the plasma concentration of the compound of the present invention, in a steady state when administered once daily, was predicted. And brain TSPO occupancy was predicted by using the relationship between plasma concentration and brain TSPO occupancy that shown in FIG. 5.

[2] = tested on: female diarrhea-type IBS patients; experiment: Efficacy trial in humans 1: double-blind parallel-group study in IBS; format: in vivo, human; details: for Daily responder (%), Abdominal Pain and Stool Consistency: placebo 6.5; for Daily responder (%), Stool Consistency: placebo 10.9; for Weekly responder (%), Abdominal Pain and Stool Consistency: placebo 21.7; for Weekly responder (%), Stool Consistency: placebo 28.3; for Daily responder (%), Abdominal Pain: placebo 37; for Weekly responder (%), Abdominal Pain: placebo 39.1; for increase in the number of days per week with no abdominal pain: 4th week of treatment period, placebo 0.61
Description: As a clinical trail, a double-bind, parallel-group study was conducted under the following conditions in female diarrhea-type IBS patients.
PURPOSE: Confirmation of efficacy against clinical symptoms of IBS METHODS: This study was conducted at 49 centers in the United States and recruited 200 patients (aged 18-65 years) with female diarrhea-type IBS patients according to Rome III criteria (Gastroenterology, Vol. 130, p. 1480-1491, 2006). Patients were randomly assigned to any of the following three treatment groups (1:1:1 ratio) and received orally administration once-daily for 4 weeks. Patients recorded their IBS symptoms on a daily basis in an e-diary during a 2-week pre-treatment, the 4-week treatment period and for 4 weeks post-treatment. Safety monitoring was performed throughout the study. The primary endpoints were change from baseline (pre-treatment period) to week 4 in stool consistency (Bristol Stool Scale; BSS), stool frequency and abdominal pain (Numerical Rating Scale; NRS). Secondary endpoints included FDA responder analyses (Guidance for Industry Irritable Bowel Syndrome—Clinical Evaluation of Drugs for Treatment).
(1) Placebo group (2) The compound of the present invention (20 mg treatment) group (3) The compound of the present invention (60 mg treatment) group ENDPOINTS: IBS symptoms (abdominal pain, stool consistency, stool frequency, faecal urgency and severity), QOL, psychological symptoms, safety, pharmacokinetics and biomarker RESULTS: Baseline value of patient layer and each of the parameters (stool consistency, stool frequency and abdominal pain) were similar in each treatment group. […] Further, a greater percentage of patients met responder criteria among patients in 60 mg treatment group of the compound of the present invention compared to placebo treatment group (Table 3, FIG. 10 and FIG. 11). On the other hand, the increase in the number of days per week with no abdominal pain at the 4th week of treatment period were 0.61 in placebo treatment group, 1.16 in 20 mg treatment group and 1.51 in 60 mg treatment group.
The weekly responder of abdominal pain and stool consistency was defined as a patient who met the both criteria of the above-mentioned abdominal pain score and stool consistency.

brain TSPO [3] = experiment: Brain occupancy using PET in monkeys, [11C] PBR28; format: in vivo; details: rhesus monkey PET, [11C] PBR28, oral
Description: Male rhesus monkeys (Hamri Co., Ltd., at the time of use: 5 to 8 kg) were used. The vehicle (0.5 w/v % methylcellulose 400 cP solution) or the compound of the present invention (0.3 to 30 mg/kg) was once orally administered to 3 rhesus monkeys. After 2 hours of the administration, a PET measurement using [^11C] PBR28 was performed in the following manner.
Measurement equipment: PET camera; SHR-7700 (Hamamatsu Photonics K.K.) Image reconstruction: SHR Control II program (Hamamatsu Photonics K.K.) Change over time in brain radioactivity concentration and calculation of distribution volume: PMOD programs (PMOD Technologies Ltd.) Measurement methods: 120 minutes blank measurement and 30 minutes transmission measurement were performed using 68Ge/68Ga calibration source. Next, [^11C] […]
The compound of the present invention (0.3 to 10 mg/kg) was orally administered twice daily for 3 days, once on day 4 to 3 rhesus monkeys. […] Brain TSPO occupancy relative to the distribution volume of the vehicle control group was calculated by calculating the distribution volume of the interest area (cerebellum, hippocampus, striatum, thalamus, occipital lobe, temporal lobe, frontal lobe and parietal lobe) from the brain radioactivity concentration time change of [^11C] PBR28 and arterial blood plasma radioactivity which was corrected in a non-metabolic rate.

[4] = 20 mg oral once daily 4 weeks, n = 41
[5] = 60 mg oral once daily 4 weeks, n = 45

## COc1cc(Cl)ccc1[C@H]1c2[nH]c3cccc(F)c3c2C2(CC2)CN1C(C)=O [the compound of the present invention, (1S)-2-acetyl-1-(4-chloro-2-methoxyphenyl)-5-fluoro-1,2,3,9-tetrahydrospiro[β-carboline-4,1′-cyclopropane]]
Brain TSPO [1]; dose 1 mg
  ROmax (%) Predicted 5 percentile: 28.3%
  ROmax (%) Predicted 95 percentile: 48.8%
  ROmax (%) Predicted median: 38.4%
  ROmin (%) Predicted 5 percentile: 11.5%
  ROmin (%) Predicted 95 percentile: 30.5%
  ROmin (%) Predicted median: 19.4%
Brain TSPO [1]; dose 5 mg
  ROmax (%) Predicted 5 percentile: 60.5%
  ROmax (%) Predicted 95 percentile: 84.6%
  ROmax (%) Predicted median: 72.0%
  ROmin (%) Predicted 5 percentile: 38.0%
  ROmin (%) Predicted 95 percentile: 67.7%
  ROmin (%) Predicted median: 52.5%
Brain TSPO [1]; dose 10 mg
  ROmax (%) Predicted 5 percentile: 69.6%
  ROmax (%) Predicted 95 percentile: 94.2%
  ROmax (%) Predicted median: 80.9%
  ROmin (%) Predicted 5 percentile: 52.8%
  ROmin (%) Predicted 95 percentile: 81.0%
  ROmin (%) Predicted median: 67.1%
Brain TSPO [1]; dose 20 mg
  ROmax (%) Predicted 5 percentile: 75.1%
  ROmax (%) Predicted 95 percentile: 100.0%
  ROmax (%) Predicted median: 86.4%
  ROmin (%) Predicted 5 percentile: 64.6%
  ROmin (%) Predicted 95 percentile: 91.5%
  ROmin (%) Predicted median: 77.6%
Brain TSPO [1]; dose 30 mg
  ROmax (%) Predicted 5 percentile: 77.0%
  ROmax (%) Predicted 95 percentile: 102.6%
  ROmax (%) Predicted median: 88.5%
  ROmin (%) Predicted 5 percentile: 69.7%
  ROmin (%) Predicted 95 percentile: 94.9%
  ROmin (%) Predicted median: 81.8%
Brain TSPO [1]; dose 50 mg
  ROmax (%) Predicted 5 percentile: 78.7%
  ROmax (%) Predicted 95 percentile: 104.0%
  ROmax (%) Predicted median: 90.2%
  ROmin (%) Predicted 5 percentile: 74.1%
  ROmin (%) Predicted 95 percentile: 99.0%
  ROmin (%) Predicted median: 85.8%
Brain TSPO [1]; dose 60 mg
  ROmax (%) Predicted 5 percentile: 78.8%
  ROmax (%) Predicted 95 percentile: 104.2%
  ROmax (%) Predicted median: 91.0%
  ROmin (%) Predicted 5 percentile: 75.0%
  ROmin (%) Predicted 95 percentile: 100.1%
  ROmin (%) Predicted median: 87.0%
Brain TSPO [1]; dose 70 mg
  ROmax (%) Predicted 5 percentile: 79.4%
  ROmax (%) Predicted 95 percentile: 104.8%
  ROmax (%) Predicted median: 91.2%
  ROmin (%) Predicted 5 percentile: 76.4%
  ROmin (%) Predicted 95 percentile: 101.1%
  ROmin (%) Predicted median: 88.2%
Brain TSPO [1]; dose 100 mg
  ROmax (%) Predicted 5 percentile: 80.1%
  ROmax (%) Predicted 95 percentile: 106.1%
  ROmax (%) Predicted median: 92.1%
  ROmin (%) Predicted 5 percentile: 77.6%
  ROmin (%) Predicted 95 percentile: 103.1%
  ROmin (%) Predicted median: 90.0%
[2]; 20 mg or 60 mg oral once daily for 4 weeks
  tolerability and safety profile: well-tolerated and had a favourable safety profile
[2]; [4]
  Daily responder (%), Abdominal Pain and Stool Consistency: 14.6%
  Daily responder (%), Stool Consistency: 17.1%
  Weekly responder (%), Abdominal Pain and Stool Consistency: 22%
  Weekly responder (%), Stool Consistency: 41.5%
  Daily responder (%), Abdominal Pain: 36.6%
  Weekly responder (%), Abdominal Pain: 39%
[2]; [5]
  Daily responder (%), Abdominal Pain and Stool Consistency: 20%
  Daily responder (%), Stool Consistency: 26.7%
  Weekly responder (%), Abdominal Pain and Stool Consistency: 37.8%
  Weekly responder (%), Stool Consistency: 48.9%
  Daily responder (%), Abdominal Pain: 53.3%
  Weekly responder (%), Abdominal Pain: 57.8%
[2]; 60 mg treatment group, over the 4-week treatment period (FIG. 8)
  number of days per week with at least one stool having a BSS classification of 6 or 7, vs placebo: Improvements over placebo treatment group
[2]; 60 mg treatment group, over the 4-week treatment period (FIG. 9)
  average weekly score of the worst abdominal pain experienced during the past 24 hours, vs placebo: Improvements over placebo treatment group
[2]; 20 mg treatment group
  increase in the number of days per week with no abdominal pain: 1.16
[2]; 60 mg treatment group
  increase in the number of days per week with no abdominal pain: 1.51
Brain TSPO [3]
  plasma concentration at which brain TSPO occupancy reaches about 50%: about 70 ng/mL
